Test results published in PubChem BioAssay AID179 (DTP/NCI, 2004).
Activity calls are given as the source filed them.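 The calls were made as follows: active = compounds giving half or more protection of infected cells from virus-caused growth loss, again on retest; inactive = the rest.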

System: CEM cells HIV-1 protection, formazan growth assay
Experiment: NCI AIDS Antiviral Assay
Conditions: for IC50: measured here: growth of uninfected CEM cells
How it was run: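 Protection of CEM cells against HIV-1 was scored from cell growth (soluble formazan) across five concentrations, with parallel uninfected cells. Lack of protection may reflect toxicity.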

SMILES	outcome	EC50 [µM]	IC50 [µM]
COc1ccc(C(CC(=O)c2ccc3c(c2)OCO3)C(=O)O)cc1OC (configuration not stated)	inactive		
Cc1ccc(/C=C/C(=O)c2sc(C(N)=S)nc2C)cc1		> 85.1	> 85.1
CC(C)(C)c1cc(/C=C2\CCC/C(=C\c3cc(C(C)(C)C)c(O)c(C(C)(C)C)c3)C2=O)cc(C(C)(C)C)c1O		> 200	> 200
CC(C)(C)OC(=O)N[C@H]1CCN(C2CCCCC2)C1=O		> 200	> 200
CCOP(=O)(OCC)C1C(=O)OC2(C)CCC1C2(C)C (configuration not stated)	inactive		
Cc1ccc(S(=O)(=O)OCCn2cnc3nc(NC(=O)c4ccccc4)[nH]c(=O)c32)cc1		> 57.5	> 57.5
O=c1c2sc3nc(NCCN4CCCCC4)ncc3c2ncn1-c1ccccc1		> 200	117
OCC1OC(c2cccc3cc(O)c(O)cc23)CC1O (configuration not stated)		> 200	51.3
O=c1[nH]c(=O)n(C2OC(CO)C(O)C2O)cc1Oc1ccccc1 (configuration not stated)		> 200	> 200
COC1/C=C/OC2(C)Oc3c(C)c(O)c4c(O)c(c(C5SCCS5)c(O)c4c3C2=O)NC(=O)/C(C)=C\C=C\C(C)C(O)C(C)C(O)C(C)C(O)C1C (configuration not stated)		> 200	1
Nc1c(C(=O)O)sc2ncccc12		141	219
O=c1[nH]c2nc3ccccc3c(=O)n2/c1=C/c1ccc(Cl)cc1		> 200	11.2
O=CC1(c2ccccc2)NC(=O)NC1=O (configuration not stated)		> 200	> 200
CSc1nnc2sc3cc(C)ccc3n12		> 200	123
COc1cc(/C=C2\CCC(C)C3=C2N=c2s/c(=C/c4ccc(Cl)cc4)c(=O)n2C3c2cc(OC)c(OC)c(OC)c2)cc(OC)c1OC (configuration not stated)		> 200	102
FC(F)(F)c1cc(C2SCc3nc4ccccc4n32)cc(C(F)(F)F)c1 (configuration not stated)		> 41.7	7.08
O=c1c2c3c(sc2nc2n1N=CN(c1ccccc1)C2)CCCC3		> 200	> 200
C[C@]12CC[C@@H]3c4ccc(OC(=O)c5ccccc5)cc4CC[C@H]3[C@@H]1CCC2OC(=O)c1cccc2c(=O)c3ccccc3[nH]c12 (some centres not stated)		> 151	7.94
CN(C)c1nc(N)c(N=O)c(=O)[nH]1		> 200	178
CCOC(=O)C1=NN(c2ccccc2)C(=O)/C1=C\N1C(=O)/C(=C/c2cccc(O)c2)SC1=S		> 200	38.9
CCOC(OCC)C(CC)[Se]c1ccccc1[N+](=O)[O-] (configuration not stated)		> 28.8	1.7
C=C(C)OCOCCOC		> 200	> 200
CCCCCCCCCCCCCCCCCC(=O)NCC(COP(=O)([O-])OCC[N+](C)(C)C)OC (configuration not stated)	inactive		

SMILES	outcome	EC50 [µM]	IC50 [µM]
O=C1C=C(c2c(O)ccc3ccccc23)c2cc(O)ccc2C1=O		> 112	6.61
Cc1cc2nn(C3CCCO3)nc2cc1C (configuration not stated)		> 200	> 200
O=C(C(=O)c1ccc(Cc2ccc(C(=O)C(=O)c3ccccc3)cc2)cc1)c1ccccc1		> 575	> 575
C[C@H](CS)C(=O)N1c2ccccc2C[C@H]1C(=O)O		> 200	> 200
CCOC(=O)/C(C#N)=C1/c2ccccc2C(=O)C1(Cl)C(N)=O (configuration not stated)		> 200	28.8
CN(C)c1ccc(/C=C(\C#N)C(=O)c2ccccc2)cc1		> 29.5	6.17
COC(=O)CCCc1ccc2c(c1)CC1(Cc3ccccc3C1)C2		> 200	> 200
CC(=O)Nc1ccc(Sc2nnc(NC(C)=O)s2)cc1		> 32.4	> 32.4
S=C1CC(=S)NC(=S)N1		> 513	> 513
COC(=O)/C(=N\Nc1nc(=S)[nH]n1N)C(C#N)c1ccccc1 (configuration not stated)		> 178	> 178
O=C1c2ccccc2C(=O)N1CCc1c[nH]c2ccccc12		> 200	> 200
c1ccc2c(c1)nnn2CN1CCOCC1	inactive		
CC(C)(C)c1ccc(-c2nnc(-c3cc(C#N)cc(-c4nnc(-c5ccc(C(C)(C)C)cc5)o4)c3)o2)cc1		> 100	> 100
S=c1[nH]nc(Nc2ccc(Cl)cc2)s1		> 200	79.4
O=[N+]([O-])c1c(Cl)cccc1-c1c[nH]c(Cl)c1Cl		> 123	20.4
O=CC(=O)c1ccccc1	inactive		
c1ccc2c(c1)NC1CCN2C1 (configuration not stated)		> 813	> 813
[CH2+][B-]1(C)n2cc(Br)c[n+]2[B-](C)(C)[n+]2cc(Br)cn21		> 200	105
CN(CCc1ccc(Br)cc1)CCN1CCCCC1		> 123	57.5
N#CN=CN1CCN(c2ccccn2)CC1		> 537	> 537
O=c1n(CC2CO2)c2ccccc2n1CC1CS1 (configuration not stated)		> 692	12.9
CCCCCCCCCCCCCCCCc1c(C(=O)OC)nc(NN)[nH]c1=O		> 9.33	> 9.33
Sc1nc2ccccc2s1.Sc1nc2ccccc2s1.Sc1nc2ccccc2s1.Sc1nc2ccccc2s1.[Cl][Rh][Cl]		> 151	2.95

SMILES	outcome	EC50 [µM]	IC50 [µM]
Cc1nc(C)c(N2CCN(S(N)(=O)=O)CC2)c(=O)[nH]1		> 200	> 200
O=C1C(O)C(O)C(O)C(O)C1O (configuration not stated)		> 200	> 200
CC(=O)Nc1c(Nc2ccc3c(=O)[nH]ccc3c2C)cc[nH]c1=O		> 398	191
Cc1ccc(S(=O)(=O)N[C@H](C(=O)O)c2ccccc2)cc1	inactive		
O=c1c2ncn(COCCCl)c2n(-c2ccccc2)c(=S)n1-c1ccccc1	inactive		
Cc1cn(CCCCCOC(=O)NC(CCCN=C(N)N)C(=O)O)c(=O)[nH]c1=O (configuration not stated)		> 200	18.2
CN/N=C/c1c2c(O)c3c(O)c(C)c4c(c3c1O)C(=O)C(C)(O/C=C/C(OC)C(C)C(OC(C)=O)C(C)C(O)C(C)C(O)C(C)/C=C/C=C(/C)C(=O)N2)O4 (configuration not stated)		> 200	26.3
CC1=C(CC2C(=O)N(c3ccccc3)S(=O)(=O)NC2C)C(=O)N(c2ccccc2)S(=O)(=O)N1C (configuration not stated)		> 490	16.6
Nc1ccc(N=O)c(N)n1		> 200	> 200
O=c1oc2ccccc2c(O)c1C(c1ccc([N+](=O)[O-])cc1)c1c(O)c2ccccc2oc1=O	inactive		
CCNCCN.[O-][Cl+3]([O-])([O-])[O-].[Pd+2].c1ccc(-c2ccccn2)nc1		> 200	30.9
Cc1ccc(S(=O)(=O)O/N=C2\CCC\C2=C/c2ccccc2)cc1	inactive		
O=C(O)CC(NC(=O)C(F)(F)F)C(=O)NC1Cc2ccccc2OC1=O (configuration not stated)		> 200	> 200
[O-]/[N+](=C\c1ccccc1)[C@H](COCc1ccccc1)c1ccccc1		> 77.6	> 77.6
CCOC(=O)C(CO)c1nc2c([nH]c1=O)c(=O)n(C)c(=O)n2C (configuration not stated)		> 200	> 200
COc1cc(CNc2nc3c(N)cc(C(F)(F)F)cc3nc2-c2ccccc2)cc(OC)c1OC		> 20.4	> 20.4
C[N+]1(CCC(C(N)=O)(c2ccccc2)c2ccccc2)CCCC12CCCCC2 (configuration not stated)	inactive		
CC(=O)Nc1c(C)cc2c(nc3n2CCC3OC(C)=O)c1[N+](=O)[O-] (configuration not stated)		> 200	> 200
CC(C)CC(NC=O)C(=O)NC(Cc1ccccc1)NC(=O)CNC(=O)C(C)NC(=O)C(N)Cc1ccc(O)cc1 (configuration not stated)		141	151
O=C1CCc2c(Cl)sc(Cl)c21		> 331	151
COc1nc2ccc(COc3ccc(C(=O)O)cc3)cc2nc1OC		> 200	132
O=NN1CN2CN(C1)CN(N=O)C2		> 200	30.9
CC(=O)c1ccc(NC(=O)/C(Cc2ccccn2)=N/NC(=O)C[N+](C)(C)C)cc1	inactive		

SMILES	outcome	EC50 [µM]	IC50 [µM]
Cc1cc(S(=O)(=O)Nc2n[nH]c(N)n2)c(S)cc1Cl		> 200	> 200
NC(=O)c1cccc([C@@H]2O[C@H](CO)[C@@H](O)[C@H]2O)c1		> 977	5.37
CN(c1cn(C2CC[C@@H](CO)O2)c(=O)[nH]c1=O)C1CCCCC1 (some centres not stated)		> 200	> 200
O=c1oc(=O)c2cc3c(=O)oc(=O)c3cc12		> 200	> 200
CSC(=NCCN=C(NS(=O)(=O)c1ccc(Cl)cc1)SC)NS(=O)(=O)c1ccc(Cl)cc1		> 200	> 200
[O-]c1on[n+]2c1CCCC2	inactive		
CC(=O)C1CCN(Cc2ccccc2)C1 (configuration not stated)	inactive		
CC1(C)CC2=C(SC3C=CC=CC3N2)C(=O)C1C(=O)C(N)=O (configuration not stated)		> 58.9	> 58.9
O=C1CCC2(CC1)Cc1ccccc1C2O (configuration not stated)		> 200	> 200
COC(=O)Cc1c([C@H]2[C@H](CC(=O)OC)c3ccccc3N2S(=O)(=O)c2ccc(C)cc2)[nH]c2ccccc12		> 102	11.5
COc1cc2ccc1-c1cc(ccc1O)CC1c3cc4c(cc3CCN1C)Oc1c(OC)cc3c(c1O4)C(C2)N(C)CC3 (configuration not stated)	inactive		
c1ccc2sc(SN3CCOCC3)nc2c1		> 10.7	> 10.7
COc1cccc(CC2Cc3ccccc3CC(=O)N2)c1 (configuration not stated)		> 200	38
COc1cc2c(cc1OC)C1c3ccccc3C(C#N)(C2)N(C(=O)c2ccccc2)C1O (configuration not stated)	inactive		
[O-][n+]1onc2c1CCC(=N\O)/C2=N/Nc1ccccc1		> 200	155
CCOC(CN(C)C(=S)Nc1cccc2ccccc12)OCC		> 200	158
COC(=O)[C@H](Cc1c[nH]c2ccccc12)NP(=O)(O)OC[C@H]1O[C@@H](n2cc(C)c(=O)[nH]c2=O)C[C@@H]1N=[N+]=[N-]		28.2	> 200
CC(O[Si](C)(C)C)C1C=CC(C)n2c(=O)n(-c3ccccc3)c(=O)n21 (configuration not stated)	inactive		
CC(C)(C)NC1=NC(C(F)(F)F)(C(F)(F)F)NC(=O)N1		> 200	70.8
NC(N)=NS(=O)(=O)c1ccc(NC(=O)c2cccc3c(Nc4ccc(S(N)(=O)=O)cc4)c4ccccc4nc23)cc1		> 43.7	> 43.7
